Patent US6835755B1, “Naphthoquinone derivatives and their use in the treatment and control of tuberculosis” (priority 1999, dated 2004)
Values after ≈ are worked out from the molar mass of the structure shown.

Tested on: Mycobacterium tuberculosis sensitive strain (H37Rv)
Assay: microbe, parasite or virus in culture
Format: cell-based
Conditions: for ΔGI values of plant extracts: at MIC, mean ± s.d.

| SMILES | ΔGI values of plant extracts (H37Rv sensitive strain ATCC27294) | MIC (Minimal inhibitory concentration) (H37Rv sensitive strain ATCC27294, radiometric method) | ΔGI values of plant extracts (H37 sensitive strain) | MIC (Mycobacterium tuberculosis, H37RV, H37 sensitive strain, radiometric method) |
| --- | --- | --- | --- | --- |
| Cc1cc(O)c2c(c1)C(=O)C=CC2=O [7-methyljuglone, 5-hydroxy-7-methyl-1,4-naphtoquinone] | 0 ± 1 | 50 mg/L (≈ 266 µM) |  |  |
| Cc1cc(O)c2c(c1)C(=O)C(c1c(C)cc3c(c1O)C(=O)C=CC3=O)=CC2=O [diospyrin, 5,5′ dihydroxy 7,7′ binaphthoquinone] |  |  | −1 ± 1.41 | 100 mg/L (≈ 267 µM) |
